Here are results for 19 molecules from US20240415819A1, “MACROCYCLIC COMPOUNDS AS PROTEASOME SUBUNIT BETA TYPE-5 INHIBITORS” (Lead Discovery Center GmbH, priority 2021, published 2024).

Experiment [1] concerns hPMBC. Briefly: Chymotrypsin-like ProteasomeGlo assay in hPBMC. Format: cell-based. The settings on record: Homo sapiens; read-out: Pglo hPBMC. Put shortly:
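IC50 derived from luminescent chymotrypsin-like proteasome activity (Suc-LLVY-Glo substrate plus luciferin detection reagent). Measured after 105 min compound exposure at 37 °C, 5% CO2. Cells were human B cells purified from buffy-coat PBMC.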

Experiment [2] concerns A549 (human lung carcinoma cell line). Briefly: Glo assay of A549 cells (Table 3; ProteasomeGlo plating scheme). Format: cell-based. The settings on record: Homo sapiens; A549 cells; read-out: PGLo A549. In short, it runs like this: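 Cells plated in 384 wells; compound, DMSO, staurosporine transferred by ECHO; 105 min, 37° C., 5% CO2; Proteasome-Glo (Suc-LLVY-Glo) reagent added; dark 10-15 min; luminescence; IC50 nM.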

Experiment [3] addresses T1, β5 subunit of the human constitutive proteasome (CPS) (Homo sapiens, UniProt P28074).
T1 construct: purchased Boston Biochem E-360
Briefly: β5 inhibition assay, human constitutive proteasome (Suc-LLVY-AMC). Format: biochemical. Particulars: IC50 class, Suc-LLVY-AMC substrate. The method, then: The enzymatic activity of the β5 subunit of the human constitutive proteasome (CPS) is analyzed. In another assay, which differs from the assay of the human constitutive proteasome only in using the human immunoproteasome (IPS) the enzymatic activity of the β5 subunit of the human immunoproteasome (IPS) is analyzed. […] Inhibition is indicated as IC50 [nM] (“-”=not measured).

In the case of `Cc1ccc2cc1CNC(=O)C(CCc1ccccc1)NC(=O)[C@@H](NC(=O)OCc1ccccc1)CC(=O)N1CCCC(CCO2)C1` (stereo partly drawn) [Compound 503, benzyl ((12S)-9-phenethyl-5^4-methyl-8,11,14-trioxo-4-oxa-7,10-diaza-1(3,1)-piperidina-5(1,3)-benzenacyclotetradecaphane-12-yl)carbamate], the IC50 is 100 to 500 nM in experiment [1], 100 to 500 nM in experiment [2] and below 100 nM in experiment [3].
Take `Cc1ccc2cc1CNC(=O)C(CCc1cnc3nccnc3c1)NC(=O)[C@@H](NC(=O)OCc1ccccc1)CC(=O)N1CCCC(CCO2)C1` (stereo partly drawn) [Compound 505, benzyl ((12S)-5^4-methyl-8,11,14-trioxo-9-(2-(pyrido[2,3-b]pyrazin-7-yl)ethyl)-4-oxa-7,10-diaza-1(3,1)-piperidina-5(1,3)-benzenacyclotetradecaphane-12-yl)carbamate]: the IC50 was 100 to 500 nM in experiment [1], below 100 nM in experiment [2] and below 100 nM in experiment [3].
Turning to `Cc1ccc2cc1CNC(=O)C(CCc1ccc(S(=O)(=O)O)cc1)NC(=O)[C@@H](NC(=O)OCc1ccccc1)CC(=O)N1CCCC(CCO2)C1` (stereo partly drawn) [Compound 509, 4-(2-((12S)-12-(((benzyloxy)carbonyl)amino)-5^4-methyl-8,11,14-trioxo-4-oxa-7,10-diaza-1(3,1)-piperidina-5(1,3)-benzenacyclotetradecaphane-9-yl)ethyl)benzenesulfonic acid], the IC50 was 100 to 500 nM in experiment [1], below 100 nM in experiment [2] and below 100 nM in experiment [3].
Regarding `Cc1ccc2cc1CNC(=O)C(CCc1ccc(C3(C)COC3)cc1)NC(=O)[C@@H](NC(=O)OCc1ccccc1)CC(=O)N1CCCC(CCO2)C1` (stereo partly drawn) [Compound 510, benzyl ((12S)-5^4-methyl-9-(4-(3-methyloxetan-3-yl)phenethyl)-8,11,14-trioxo-4-oxa-7,10-diaza-1(3,1)-piperidina-5(1,3)-benzenacyclotetradecaphane-12-yl)carbamate], the IC50 in experiment [1], in experiment [2] and in experiment [3] was below 100 nM throughout.
As to `Cc1ccc2cc1CNC(=O)C(CCc1cnc3cccnc3c1)NC(=O)[C@@H](NC(=O)OCc1ccccc1)CC(=O)N1CCCC(CCO2)C1` (stereo partly drawn) [Compound 511, benzyl ((12S)-9-(2-(1,5-naphthyridin-3-yl)ethyl)-5^4-methyl-8,11,14-trioxo-4-oxa-7,10-diaza-1(3,1)-piperidina-5(1,3)-benzenacyclotetradecaphane-12-yl)carbamate], the IC50 in experiment [1], in experiment [2] and in experiment [3] was below 100 nM in each case.
Consider `Cc1nc(C2NC(=O)[C@@H](NC(=O)OCc3ccccc3)CC(=O)N3CCCC(CCOc4ccc(C)c(c4)CNC2=O)C3)co1` (stereo partly drawn) [Compound 512, benzyl ((12S)-5^4-methyl-9-(2-methyloxazol-4-yl)-8,11,14-trioxo-4-oxa-7,10-diaza-1(3,1)-piperidina-5(1,3)-benzenacyclotetradecaphane-12-yl)carbamate], for which the IC50 in experiment [1], in experiment [2] and in experiment [3] was below 100 nM in each case.
Turning to `COC(=O)N(CC1NC(=O)[C@@H](NC(=O)OCc2ccccc2)CC(=O)N2CCCC(CCOc3ccc(C)c(c3)CNC1=O)C2)c1ccccc1` (stereo partly drawn) [Compound 513, methyl (((12R)-12-(((benzyloxy)carbonyl)amino)-5^4-methyl-8,11,14-trioxo-4-oxa-7,10-diaza-1(3,1)-piperidina-5(1,3)-benzenacyclotetradecaphane-9-yl)methyl)(phenyl)carbamate], the IC50 in experiment [1], in experiment [2] and in experiment [3] was below 100 nM in each case.
Take `CC(=O)N[C@H]1CC(=O)N2CCCC(CCOc3ccc(C)c(c3)CNC(=O)C(CCc3cccnc3)NC1=O)C2` (stereo partly drawn) [Compound 549, N-((12S)-5^4-methyl-8,11,14-trioxo-9-(2-(pyridin-3-yl)ethyl)-4-oxa-7,10-diaza-1(3,1)-piperidina-5(1,3)-benzenacyclotetradecaphane-12-yl)acetamide]: the IC50 in experiment [1] was below 100 nM; in experiment [2], 100 to 500 nM; in experiment [3] it was below 100 nM.
With `CC(=O)N[C@H]1CC(=O)N2CCCC(CCOc3ccc(C)c(c3)CNC(=O)C(CCc3ccncc3)NC1=O)C2` (stereo partly drawn) [Compound 551, N-((12S)-5^4-methyl-8,11,14-trioxo-9-(2-(pyridin-4-yl)ethyl)-4-oxa-7,10-diaza-1(3,1)-piperidina-5(1,3)-benzenacyclotetradecaphane-12-yl)acetamide], the IC50 in experiment [1], in experiment [2] and in experiment [3] was below 100 nM throughout.
On to `CC(=O)N[C@H]1CC(=O)N2CCCC(CCOc3ccc(C)c(c3)CNC(=O)C(c3cnn(C)c3)NC1=O)C2` (stereo partly drawn) [Compound 552, N-((12S)-5^4-methyl-9-(1-methyl-1H-pyrazol-4-yl)-8,11,14-trioxo-4-oxa-7,10-diaza-1(3,1)-piperidina-5(1,3)-benzenacyclotetradecaphane-12-yl)acetamide], for which the IC50 is below 100 nM in experiment [1], 100 to 500 nM in experiment [2] and below 100 nM in experiment [3].
For `CC(=O)N[C@H]1CC(=O)N2CCCC(CCOc3ccc(C)c(c3)CNC(=O)C(c3coc(C)n3)NC1=O)C2` (stereo partly drawn) [Compound 553, N-((12S)-5^4-methyl-9-(2-methyloxazol-4-yl)-8,11,14-trioxo-4-oxa-7,10-diaza-1(3,1)-piperidina-5(1,3)-benzenacyclotetradecaphane-12-yl)acetamide], the IC50 is below 100 nM in experiment [1], 100 to 500 nM in experiment [2] and below 100 nM in experiment [3].
For the molecule `CC(=O)N[C@H]1CC(=O)N2CCCC(CCOc3ccc(C)c(c3)CNC(=O)C(c3ccc4ncccc4c3)NC1=O)C2` (stereo partly drawn) [Compound 554, N-((12S)-5^4-methyl-8,11,14-trioxo-9-(quinolin-6-yl)-4-oxa-7,10-diaza-1(3,1)-piperidina-5(1,3)-benzenacyclotetradecaphane-12-yl)acetamide], the IC50 was 100 to 500 nM in experiment [1], 100 to 500 nM in experiment [2] and below 100 nM in experiment [3].
Consider `CC(=O)N[C@H]1CC(=O)N2CCCC(CCOc3ccc(C)c(c3)CNC(=O)C(Cn3c(=O)oc4ccccc43)NC1=O)C2` (stereo partly drawn) [Compound 555, N-((12S)-5^4-methyl-8,11,14-trioxo-9-((2-oxobenzo[d]oxazol-3(2H)-yl)methyl)-4-oxa-7,10-diaza-1(3,1)-piperidina-5(1,3)-benzenacyclotetradecaphane-12-yl)acetamide], for which the IC50 in experiment [1], in experiment [2] and in experiment [3] was below 100 nM throughout.
On to `CC(=O)N[C@H]1CC(=O)N2CCCC(CCOc3ccc(C)c(c3)CNC(=O)C(c3cc(C)sn3)NC1=O)C2` (stereo partly drawn) [Compound 556, N-((12S)-5^4-methyl-9-(5-methylisothiazol-3-yl)-8,11,14-trioxo-4-oxa-7,10-diaza-1(3,1)-piperidina-5(1,3)-benzenacyclotetradecaphane-12-yl)acetamide], for which the IC50 in experiment [1], in experiment [2] and in experiment [3] was below 100 nM in each case.
As for `CC(=O)N[C@H]1CC(=O)N2CCCC(CCOc3ccc(C)c(c3)CNC(=O)C(c3cn(C)cn3)NC1=O)C2` (stereo partly drawn) [Compound 557, N-((12S)-5^4-methyl-9-(1-methyl-1H-imidazol-4-yl)-8,11,14-trioxo-4-oxa-7,10-diaza-1(3,1)-piperidina-5(1,3)-benzenacyclotetradecaphane-12-yl)acetamide], the IC50 in experiment [1], in experiment [2] and in experiment [3] was below 100 nM each time.
As for `CC(=O)N[C@H]1CC(=O)N2CCCC(CCOc3ccc(C)c(c3)CNC(=O)C(Cc3ccccc3)NC1=O)C2` (stereo partly drawn) [Compound 558, N-((12S)-9-benzyl-5^4-methyl-8,11,14-trioxo-4-oxa-7,10-diaza-1(3,1)-piperidina-5(1,3)-benzenacyclotetradecaphane-12-yl)acetamide], the IC50 in experiment [1] is below 100 nM; in experiment [2], 100 to 500 nM; in experiment [3], below 100 nM.
As to `CC(=O)N[C@H]1CC(=O)N2CCCC(CCOc3ccc(C)c(c3)CNC(=O)C(c3cnn(-c4ccccc4)c3)NC1=O)C2` (stereo partly drawn) [Compound 559, N-((12S)-5^4-methyl-8,11,14-trioxo-9-(1-phenyl-1H-pyrazol-4-yl)-4-oxa-7,10-diaza-1(3,1)-piperidina-5(1,3)-benzenacyclotetradecaphane-12-yl)acetamide], the IC50 in experiment [1] is below 100 nM; in experiment [2], 100 to 500 nM; in experiment [3], below 100 nM.
Consider `COC(=O)N(CC1NC(=O)[C@@H](NC(C)=O)CC(=O)N2CCCC(CCOc3ccc(C)c(c3)CNC1=O)C2)c1ccccc1` (stereo partly drawn) [Compound 560, methyl (((12S)-12-acetamido-5^4-methyl-8,11,14-trioxo-4-oxa-7,10-diaza-1(3,1)-piperidina-5(1,3)-benzenacyclotetradecaphane-9-yl)methyl)(phenyl)carbamate], for which the IC50 in experiment [1] is below 100 nM; in experiment [2] it was 100 to 500 nM; in experiment [3] it was below 100 nM.
For the molecule `CC(=O)N[C@H]1CC(=O)N2CCCC(CCOc3ccc(C)c(c3)CNC(=O)C(c3cc(C)n(C)n3)NC1=O)C2` (stereo partly drawn) [Compound 561, N-((12S)-9-(1,5-dimethyl-1H-pyrazol-3-yl)-5^4-methyl-8,11,14-trioxo-4-oxa-7,10-diaza-1(3,1)-piperidina-5(1,3)-benzenacyclotetradecaphane-12-yl)acetamide], the IC50 in experiment [1], in experiment [2] and in experiment [3] was below 100 nM throughout.
